Values joined by “and” are separate entries in the source; they are usually repeats but may differ in a detail not shown here. Identical values can stand only once.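 Step 1: Grow cells in 96-well plates. Step 2: Expose to compound for 48 hours at 5 concentrations. Step 3: Interpolate endpoints linearly; if unreached, use highest concentration. Here, GI50 denotes the concentration required for 50% inhibition of growth. TGI: concentration producing complete growth inhibition.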
What was measured:
Assay in all cases: NCI anticancer screen, dose series, 48 h
CAKI-1 renal = system: CAKI-1 renal
HCC-2998 colon = system: HCC-2998 colon
HL-60(TB) leukemia = system: HL-60(TB) leukemia
HOP-92 NSCLC = system: HOP-92 NSCLC
HS 578T breast = system: HS 578T breast
OVCAR-3 ovarian = system: OVCAR-3 ovarian
OVCAR-8 ovarian = system: OVCAR-8 ovarian
PC-3 prostate = system: PC-3 prostate
SF-539 CNS = system: SF-539 CNS
SK-MEL-28 melanoma = system: SK-MEL-28 melanoma

Structure (SMILES) | GI50 (CAKI-1 renal) | TGI (CAKI-1 renal) | GI50 (HCC-2998 colon) | TGI (HCC-2998 colon) | GI50 (HL-60(TB) leukemia) | TGI (HL-60(TB) leukemia) | GI50 (HOP-92 NSCLC) | TGI (HOP-92 NSCLC) | GI50 (HS 578T breast) | TGI (HS 578T breast) | GI50 (OVCAR-3 ovarian) | TGI (OVCAR-3 ovarian) | GI50 (OVCAR-8 ovarian) | TGI (OVCAR-8 ovarian) | GI50 (PC-3 prostate) | TGI (PC-3 prostate) | GI50 (SF-539 CNS) | TGI (SF-539 CNS) | GI50 (SK-MEL-28 melanoma) | TGI (SK-MEL-28 melanoma)
CCN1CCN(c2ccc(Nc3ncc4ccc5ncn(C(C)C)c5c4n3)nc2)CC1 | 25 nM | 0.52 µM | 161 nM | 1.43 µM | < 23.8 nM | 0.586 µM | 155 nM | 0.474 µM | 155 nM | 0.618 µM | 192 nM | 0.523 µM | 311 nM | 16.3 µM | 107 nM | 1.36 µM | 171 nM | 0.394 µM | 200 nM | 1.45 µM
Cc1cc2nc(C(Cl)Cl)nc(-c3ccccc3)n2n1 | 2700 nM | 15.4 µM | 1790 nM | 3.49 µM | 2380 nM | 6.35 µM | 2430 nM | 12.2 µM | 2650 nM | 14.5 µM | 2110 nM | 4.53 µM | 5060 nM | > 100 µM | 4770 nM | 37.9 µM | 3940 nM | 25 µM | 3540 nM | 13.1 µM
COC1=C(OC)[C@]2(OC)c3c(O)c(OC)c4c(c3O[C@@]23O[C@@H](c2ccccc2)CC=C3C1=O)[C@@H](O)C[C@H](c1ccccc1)O4 | 1340 nM | 2.93 µM | 564 nM | 1.96 µM | 177 nM | 0.627 µM | 244 nM | 0.641 µM | 1760 nM | 5.38 µM | 204 nM | 0.517 µM | 181 nM | 0.35 µM | 466 nM | 1.03 µM | 934 nM | 2.5 µM | 318 nM | 1 µM
CCN(CC)CC[n+]1cc2cc(OC)c(OC)cc2c2ccc3cc4c(cc3c21)OCO4 | 1990 nM | 14.3 µM | 725 nM | 2.15 µM | 1420 nM | 4.69 µM | 1370 nM | 3.88 µM | 604 nM | 5.54 µM | 960 nM | 2.33 µM | 314 nM | 2.11 µM | 395 nM | 2.25 µM | 1120 nM | 3.16 µM | 1480 nM | 2.93 µM
O=S(=O)(CCCCl)SCCCCl |  | > 100 µM |  | > 100 µM |  | 24.5 µM |  | 78.3 µM |  | 94.7 µM |  | > 66.6 µM |  | 18 µM |  | > 100 µM |  | 53.4 µM |  | > 100 µM
N#Cc1nn(-c2cc(=O)[nH]c3ccc(Br)cc23)c(N)c1C#N | > 100000 nM | > 100 µM | > 100000 nM | > 100 µM | > 100000 nM | > 100 µM | > 100000 nM | > 100 µM | 64900 nM | > 100 µM | > 100000 nM | > 100 µM | > 100000 nM | > 100 µM | > 100000 nM | > 100 µM | 51700 nM | > 100 µM | > 100000 nM | > 100 µM
Nc1ccc(-c2ccc(-c3nc4cc(Cl)c(Cl)cc4[nH]3)cc2)cc1 | 353 nM |  | 100 nM | 0.426 µM | 8220 nM | > 100 µM | 23000 nM | 65 µM | 12000 nM | 82.1 µM | 944 nM |  | 14500 nM | > 92.9 µM | 7990 nM | > 61.2 µM | 1380 nM | > 51.5 µM | 13400 nM | > 100 µM
O=C(O)CCSC(=S)Nc1ccc([N+](=O)[O-])cc1 |  | > 100 µM |  | > 100 µM |  | 48.6 µM |  | 68.9 µM |  | > 100 µM |  | > 87.8 µM |  | > 100 µM |  | > 100 µM |  | > 75.5 µM |  | > 100 µM
CCCCCC/C=C1\CCC(CN(C)C)C1=O (stereo unspecified) |  | 9.51 µM |  | 18.3 µM |  | 4.8 µM |  | 28.8 µM |  | 40.3 µM |  | 17.7 µM |  | 13.5 µM |  | 24 µM |  | 28.1 µM |  | 12 µM
CC1=CC(=O)c2ccc(C)cc2C1=O |  | 14.9 µM |  | 34.7 µM |  | 5.4 µM |  | 4.2 µM |  | > 100 µM |  | 29.1 µM |  | 26.8 µM |  | 44.1 µM |  | 30 µM |  | 22.7 µM
CCCCCCNCCCNc1c2ccccc2nc2cccc([N+](=O)[O-])c12 |  | 0.271 µM |  | 0.021 µM | 21.6 nM |  |  | 0.0792 µM and 0.0693 µM |  | 0.21 µM and 0.434 µM | 39.5 nM | 0.0477 µM and 0.206 µM |  | 0.136 µM and 0.17 µM |  | 0.0878 µM and 0.393 µM | 50.7 nM | 0.307 µM and 0.225 µM | 53.4 nM | 0.323 µM and 0.375 µM
Oc1c(I)cc(I)cc1CN(Cc1ccccn1)Cc1ccccn1 | 499 nM | 12.2 µM | 4180 nM | 34.7 µM | 1300 nM | 7.03 µM | 1180 nM | 9.04 µM | 2060 nM | 16 µM | 1830 nM | 15.1 µM | 547 nM | 23.2 µM | 898 nM | 20.6 µM | 855 nM | 10 µM | 1440 nM | 31.6 µM
CN1CCN(CC(=O)N2c3cccc4cccc(c34)N(C(=O)CN3CCN(C)CC3)C2c2cn(-c3ccccc3)nc2-c2cccc([N+](=O)[O-])c2)CC1 | 1830 nM | 4.1 µM | 1540 nM | 3.01 µM | 1890 nM | 3.75 µM | 1130 nM | 3.18 µM | 1950 nM | 5.71 µM | 1760 nM | 3.4 µM | 2350 nM | 5.79 µM | 2800 nM | 10.4 µM | 1690 nM | 3.19 µM | 1810 nM | 3.36 µM
Cc1ccc(C2=NN(c3ccc(S(N)(=O)=O)cc3)C(c3cn(-c4ccccc4)nc3-c3ccccc3)C2)cc1 (stereo unspecified) | 6170 nM | > 100 µM | 13800 nM | > 100 µM | 44000 nM | > 100 µM | 3330 nM | 22.2 µM | 18300 nM | > 100 µM | 14300 nM | > 100 µM | 7530 nM | > 100 µM | 3320 nM | > 100 µM | > 100000 nM | > 100 µM | 39200 nM | > 100 µM

Reference: PubChem BioAssay (NCI)
